Laboratory results published in patent US20230270772A1, “USE OF 5'-METHYLTHIOADENOSINE IN PREPARATION OF OBESITY-SUPPRESSING DRUGS OR HEALTH CARE PRODUCTS” (Zhejiang Chinese Medical University, priority 2022, published 2023).

What was measured:
[1] = system: high-fat diet-induced obesity in C57/BL mice; experiment: Comparison of MTA and adenosine in suppressing high-fat diet-induced obesity; assay type: in vivo; details: 8-week-old C57BL/6 mice, tube-feeding 100 mg/kg/day, FIG. 2A-2D
Excerpt: Experimental animals: 8-week-old C57BL/6 mice; Diets and drugs: low-fat diet (10% kcal as fat, product #D12450J, Research Diets), high-fat diet (60% kcal as fat, product #D12492, Research Diets), MTA, and adenosine.

[2] = system: high-fat diet-induced obesity in C57BL/6 mice; experiment: Suppression of high-fat diet-induced obesity, gavage for 9 weeks; assay type: in vivo; details: 100 mg/kg/day by gavage
Procedure: (§1) Eight-week-old C57BL/6 mice were divided into three groups (a control group, a model group, and a drug-treated group) (FIG. 4A). The mice of control group were fed with a low-fat diet, and the mice of model group were fed with a high-fat diet ad libitum. The mice of drug-treated group were fed with high-fat diet+5′-methylthioadenosine (100 mg/kg/day) by gavage for 9 weeks, during which the body weight of the mice was recorded, and OGTT and ITT thereof were conducted.

HepG2 hepatoma cells = experiment: Suppression of uric acid-induced lipogenesis in HepG2 hepatoma cells (oil red staining); assay type: cell-based; details: uric acid 120 μg/mL + 0.05, 0.1, 0.5, 1.0 and 5.0 μg/mL for 24 h, FIG. 3
Procedure: HepG2 hepatoma cells were induced to synthesize fat by uric acid (120 μg/mL). After 24 h, the cells were divided into two groups for testing. The cells of model group continued to be induced with uric acid (120 μg/mL) for 24 h.

[3] = system: high-fat diet-induced obesity in C57BL/6 mice; experiment: Suppression of high-fat diet-induced obesity, gavage for 11 weeks; assay type: in vivo; details: 50 and 100 mg/kg/day by gavage
Procedure: as §1, with “group).” for “group) (FIG. 4A).”, “diet,” for “diet, and”, “diet, and the” for “diet ad libitum. The”, “(50 and 100” for “(100”, “11” for “9”

## Nc1ncnc2c1ncn2[C@@H]1O[C@H](CO)[C@@H](O)[C@H]1O [adenosine]
[1]
  obesity-suppressing effect (body weight, liver weight, subcutaneous and visceral fat weight): shown to inhibit the body weight and liver weight gains and fat accumulation in mice

## CSC[C@H]1O[C@@H](n2cnc3c(N)ncnc32)[C@H](O)[C@@H]1O [5′-methylthioadenosine, 5′-Methylthioadenosine]
[1]
  obesity-suppressing effect (body weight, liver weight, subcutaneous and visceral fat weight): significantly better than that of adenosine
[2]; FIG. 4B
  high-fat diet-induced obesity (body weight): significantly suppressing high-fat diet-induced obesity
[2]; FIG. 4H, 4I
  oral glucose tolerance and insulin tolerance (OGTT, ITT): improving oral glucose tolerance and insulin tolerance in mice
[2]; after sacrifice, FIG. 4C-4G
  liver lipogenesis and gains of subcutaneous and visceral fats: suppressing the liver lipogenesis and the gains of subcutaneous fats and visceral fats
HepG2 hepatoma cells
  uric acid-induced lipogenesis (amount of synthetic fat, oil red staining): significantly inhibiting uric acid-induced lipogenesis in HepG2 cells with a concentration gradient effect
[3]; FIG. 5A, 5B
  high-fat diet-induced obesity (body weight): significantly suppressing high-fat diet-induced obesity, with a concentration gradient effect
[3]; FIG. 5G-5J
  oral glucose tolerance and insulin tolerance (OGTT, ITT): improving oral glucose tolerance and insulin tolerance in mice
[3]; after sacrifice, FIG. 5C-5F
  liver lipogenesis and gains of subcutaneous and visceral fats (perirenal, testicular): suppressing the liver lipogenesis and the gains of subcutaneous fats and visceral fats, with a concentration gradient effect
